The subject of data set [1] is TGF-β-induced IL-11 in primary human parenchymal fibroblast cells (pFbs). Briefly: Human parenchymal fibroblast cell assay, TGF-β-induced IL-11 (ELISA). It is filed as cell-based. The conditions noted are these: compounds 0.1-10 μM 30 min prior to TGF-β1, 16-24 hours, 4.00* is assigned to compounds that failed to cause 50% or more inhibition at 10 µM, read-out: pIC50 IL-11 suppression (converted). The procedure: Human Parenchymal Fibroblast Cell Assay
Primary human parenchymal fibroblast cells (pFbs) were cultured from parenchyma of lung resection specimens and from non-transplanted lungs of donors without chronic respiratory disease. pFbs were passaged in Dulbecco's Modified Eagle's Media (DMEM) containing 10% (v/v) heat-inactivated fetal calf serum (FCS), 15 mM HEPES, 0.2% (v/v) sodium bicarbonate, 2 mM L-glutamine, 1% (v/v) non-essential amino acids, 1% (v/v) sodium pyruvate, 2.5 μg/mL amphotericin, 5 IU/mL penicillin and 50 μg/mL streptomycin. In some experiments the human lung fibroblast cell line, MRC5 (sourced from ATTC) was used as indicated. The MRC5 line was maintained under the same conditions as described for the pFb.
Prior to experimentation, pFb were incubated in serum-free DMEM containing 0.25% bovine serum albumin (BSA) and insulin-transferrin-selenium-containing supplement (Monomed A; CSL, Parkville, Melbourne, Australia). The cells were incubated with small molecular CK1δ inhibitors (0.1-10 μM) for 30 min prior to […] TGF-β1 (R&D Systems, Minneapolis, Minn.) and the incubation continued for 16-24 hours prior to harvest of supernatant for detection of immunoreactive IL-11. Stock solutions were made as 10 mM in 100% DMSO and diluted to the required concentration in medium containing 0.1% DMSO (final concentration).
Supernatants were collected for measurement of IL-11 (R&D DuoSet, DY218) by ELISA following the manufacturers' instructions. Generally, capture antibodies were initially diluted to the recommended concentrations using PBS buffer, and then used to coat the wells of 96-well microplates (Greiner, #655061) by adding 50 μL/well and incubated overnight at room temperature. Next day, solutions were discarded and wells were washed 3 times with wash buffer (PBS containing 0.1% (v/v) Tween-20) prior to the addition of 200 μL of blocking solution (PBS containing 1% (v/v) BSA) for 1 hour to block non-specific sites. Plates were then washed 3 times with wash buffer and 50 μL of samples or standards were then added to wells and incubated for 2 hours at room temperature. After the incubation, plates were washed 3 times with wash buffer and 50 μL of detection antibodies were added to wells and incubated for 2 hours at room temperature. Plates were then washed 3 times before adding streptavidin-conjugated horseradish peroxidase (at the recommended concentrations) for 45 min. Plates were then washed 5 times with wash buffer and 100 μL TMB substrate solution (equal parts A and B, BD Biosciences) was added to each well until sufficient signals emerged. The reactions were inactivated by adding 100 μL sulphuric acid (2M H2SO4). The absorbance was measured at 450 nm using the Multiskan Ascent® plate reader. The absorbance of the cytokine standards was fitted to a logistic equation, allowing the concentrations of cytokine in samples to be determined.
PIC50 values (the negative log of the concentration suppressing IL-11 level by 50%) for inhibition of TGF-β-induced IL-11 were interpolated from the linear regression of log concentration small molecule versus IL-11 level (Table 4 and FIG. 2).
(In general: An ELISA detects its analyte on a solid surface through an enzyme-linked reagent.)

The nature of data set [2]: In vitro metabolic stability, human liver microsomes. Type of data set: in vitro ADME. The conditions noted are these: for Predicted CLblood: well stirred model. How it is done:
Human Microsomal Stability of Compounds of the Invention
In Vitro Metabolic Stability
Incubation: The metabolic stability assay was performed by incubating each test compound in human liver microsomes at 37° C. and a protein concentration of 0.4 mg/mL. The metabolic reaction was initiated by the addition of an NADPH-regenerating system and quenched at various time points over a 60 minute incubation period by the addition of acetonitrile containing diazepam as internal standard. Control samples (containing no NADPH) were included (and quenched at 2, 30 and 60 minutes) to monitor for potential degradation in the absence of cofactor. The human liver microsomes used in this experiment were supplied by XenoTech, lot #1410230. Microsomal incubations were performed at a substrate concentration of 1 μM. Data analysis: Species scaling factors from Ring et al. (2011) JPharmSci, 100:4090-4110 were used to convert the in vitro CLint (μL/min/mg) to an in vivo CLint(mL/min/kg). Hepatic blood clearance and the corresponding hepatic extraction ratio (EH) were calculated using the well stirred model of hepatic extraction in each species, according to the “in vitro T1/2” approach described in Obach (1999) DrugMetab. Dispos. 27:1350-1359. The EH was then used to classify compounds as low(<0.3), intermediate (0.3-0.7), high (0.7-0.95) or very high (>0.95) extraction compounds. Predicted in vivo clearance values have not been corrected for microsomal or plasma protein binding. Species scaling calculations are based on two assumptions: 1) NADPH-dependent oxidative metabolism predominates over other metabolic routes (i.e. direct conjugative metabolism, reduction, hydrolysis, etc.), and; 2) rates of metabolism and enzyme activities in vitro are truly reflective of those that exist in vivo. If significant non-NADPH-mediated degradation is observed in microsome control samples, then assumption (1) is invalid and predicted clearance parameters are therefore not reported.

Data set [3] addresses T1, human recombinant Casein kinase 18 (CK1δ) (Homo sapiens, UniProt P48730).
T1 construct: purchased Reaction Biology Corp
Briefly: Kinase inhibition assay (HotSpot, Reaction Biology Corp), CK1δ. It is filed as biochemical. The conditions noted are these: 10 μM ATP, 10-dose IC50 mode; read-out: Compound IC50 (M) CK1δ.

Setting [4] is: human liver microsomes, 1 μM, 0.4 mg/mL protein, 37° C.
Where [5] appears, read: scaled from human liver microsomes.

Here are results for two compounds from patent US20220281846A1, “COMPOUNDS AND COMPOSITIONS FOR THE TREATMENT OF RESPIRATORY DISEASES” (THE UNIVERSITY OF MELBOURNE, priority 2018, published 2022).

What is called microsomal CLint is a measure of how fast metabolising enzymes remove a compound, apart from limits set by blood flow. A low value points to greater metabolic stability. Usually half-life stands for the time needed for the level to fall by half in the phase considered.

T1 sequence (P48730 whole entry): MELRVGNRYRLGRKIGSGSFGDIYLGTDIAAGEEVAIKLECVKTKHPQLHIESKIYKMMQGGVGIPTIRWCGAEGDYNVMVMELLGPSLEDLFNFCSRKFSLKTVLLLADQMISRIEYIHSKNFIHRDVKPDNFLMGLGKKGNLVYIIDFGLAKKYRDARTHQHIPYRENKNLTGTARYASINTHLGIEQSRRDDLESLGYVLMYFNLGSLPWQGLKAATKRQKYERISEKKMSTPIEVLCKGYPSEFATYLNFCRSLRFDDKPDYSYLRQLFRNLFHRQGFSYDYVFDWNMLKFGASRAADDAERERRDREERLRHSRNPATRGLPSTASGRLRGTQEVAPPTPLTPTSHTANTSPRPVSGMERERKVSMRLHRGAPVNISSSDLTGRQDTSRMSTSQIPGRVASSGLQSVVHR

As for `Nc1nccc(-c2c(-c3ccc(F)cc3)ncn2C2CCC(F)(F)CC2)n1` [ZH3-138, 4-(1-(4,4-Difluorocyclohexyl)-4-(4-fluorophenyl)-1H-imidazol-5-yl)pyrimidin-2-amine], the IC50 was 20 µM in data set [1] and 9.32e-09 M in data set [3]. In data set [2] (human liver microsomes), the “Predicted EH (hepatic extraction ratio)” value is recorded as <0.22. Further, in data set [2] (human liver microsomes, 1 μM), the microsomal CLint at 1 μM is < 7 µL/min/mg. In data set [2] (setting [4]), the half-life at 1 μM is > 4.25 h. Moreover, the “Predicted CLblood” value in data set [2] (setting [5]) is given as <5 mL/min/kg. For the same compound, the CLint scaled at 1 μM in data set [2] (scaled from human liver microsomes, read-out: Predicted CLint, in vivo) was < 6 mL/min/kg.

With `Nc1nccc(-c2c(-c3ccc(F)cc3)ncn2C2CCCCC2)n1` [PF670462, reference compound], in data set [2] (human liver microsomes), the “Predicted EH (hepatic extraction ratio)” value was 0.88. In addition, the “CLint, in vitro” value in data set [2] (human liver microsomes, 1 μM) came to 192 μL/min/mg protein. Moreover, in data set [2] (setting [4]), the T1/2 worked out at 9 min. Also, in data set [2] (setting [5]), the “Predicted CLint, in vivo” value is 158 mL/min/kg and the “Predicted CLblood” value is 18 mL/min/kg.
